Results taken from patent publication US6747021B2, “Cryptophycin compound” (Eli Lilly and Company, priority 2000, dated 2004).
Read-outs that look alike come from different tables or passages of the source.

Assays:
[1] = system: MAMMARY ADENOCARCINOMA 16/C; type: in vivo, murine; settings: C3H/HeN female mice
Source text: (§1) Inhibition of tumors transplanted into mice is an accepted procedure for studying the efficacy of antitumor agents (Corbett, et al., In vivo Methods for Screening and Preclinical Testing; Use of rodent solid tumors for drug discovery., In: Anticancer Drug Development Guide: Preclinical Screening, Clinical Trials, and Approval, B. Teicher (ed), Humana Press Inc., Totowa, N.J., Chapter 5, pages 75-99 (1997); (Corbett, et al., Int. J. Pharmacog., 33, Supplement, 102-122 (1995)). Murine tumors or human xenographs were implanted essentially as described by Corbett in In vivo Methods for Screening and Preclinical Testing; Use of rodent solid tumors for drug discovery. Briefly, the murine tumor or human xenograph was implanted subcutaneously using either 12-gauge trocar implants or counted number of cells. The location for the trocar insertion is midway between the axillary and inguinal region along the side of the mouse. The trocar is slipped approximately ¾ of an inch subcutaneously up toward the axilla before discharging the tumor fragment, and pinching the skin as the trocar is removed. Alternatively, human tumor cells prepared from a […] of donor tumors (5×10^6 cells) were implanted subcutaneously in a hind-leg of a male or female nude mouse (Charles River). Either a test compound in vehicle or vehicle alone was administered by intravenous bolus injection (iv), intraperitoneal injection (ip), or oral gavage (po). Each treatment group, as well as a group of untreated control animals, consisted of five animals per group in each experiment. Subcutaneous tumor response was monitored by tumor volume measurement performed twice each week over the course of the experiment (60-120 days). Body weights were taken as a general measure of toxicity. The subcutaneous tumor data were analyzed by determining the median tumor weight for each treatment group over the course of the experiment and calculating the tumor growth delay as the difference in days for the treatment versus the control tumors to reach a volume of either 500 or 1000 mm^3.
(§2) Cryptophycin-309 (309) was tested against a variety of murine and human tumors substantially as described supra. Cryptophycin-55 glycinate (55-GLY), Taxol, and Adriamycin (Adria) were also included in certain tests for purposes of comparison. Cryptophycin 55 glycinate is known in the art (WO 98/08505, Example 9) and has the following structure: [drawing 9]
(§3) Tumor Weight(mg)=(a×b^2)/2 where a=tumor length (mm) and b=tumor width (mm).
(§4) Tumor Growth Delay=T−C where T is the median time (days) required for the treatment group tumors to reach a predetermined size, and C is the median time (days) for the control group tumors to reach the same size. Tumor-free survivors are excluded from this calculation, and are tabulated separately (Tumor Free).
(§5) Log Kill=Tumor Growth Delay/(3.32)(Td)
(§6) where Tumor Growth Delay is as previously defined and Td is tumor volume doubling time (days), estimated from the best fit straight line from a log-linear growth plot of the control group of tumors in exponential growth (100-800 mg range)
(§7) %T/C mass—The treatment and control groups are measured when the control group tumors reach approximately 700 to 1200 mg in size (median group). The median tumor weight of each group is determined (including zeros). The T/C value in percent is an indication of antitumor effectiveness. A T/C≦42% is considered significant antitumor activity. A T/C<10% is considered to indicate highly significant antitumor activity.
(§8) Body Weight Loss Nadir—A body weight loss nadir (mean of group) of greater than 20% or drug deaths greater than 20% are considered to indicate an excessively toxic dosage in single course trials.
(§9) Activity Rating—the Activity Rating is derived from the Log Kill according to the following table: […]

[2] = system: MAMMARY ADENOCARCINOMA-17/ADR/Resist.; type: in vivo, murine; settings: C3H female mice
Source text: as §1, §2, §3, §4, §5, §6, §7, §8, §9

[3] = system: PANCREATIC DUCTAL ADENOCARCINOMA #02; type: in vivo, murine; settings: BDF1 female mice, experiment ##
Source text: as §1, §2, §3, §4, §5, §6, §7, §8, §9

[4] = system: MAMMARY ADENOCARCINOMA-16/C/Adr; experiment: Early stage murine mammary adenocarcinoma-16/C/Adr subcutaneous tumor assay; type: in vivo; settings: C3H female mice
Source text: as §1, §2, §3, §4, §5, §6, §7, §8, §9

[5] = system: HUMAN COLON ADENOCARCINOMA 15; type: in vivo; settings: Balb/C SCID female mice
Source text: as §1, §2, §3, §4, §5, §6, §7, §8, §9

HUMAN COLON ADEN[…]-116 = experiment: Early stage human colon adenocarcinoma HCT-116 xenograft assay; type: in vivo; settings: Balb/C SCID female mice
Source text: as §1, §2, §3, §4, §5, §6, §7, §8, §9

[6] = IV 28 mg/kg/inj days 3,5,7,9,11, total dose 140 mg/kg
[7] = IV 42 mg/kg/inj days 3,5,7,9,11, total dose 210 mg/kg
[8] = IV 28 mg/kg/inj days 1,3,5,7,9, total dose 140 mg/kg
[9] = IV 42 mg/kg/inj days 1,3,5,7,9, total dose 210 mg/kg
[10] = IV 42 mg/kg/inj days 1,3,7,9, total dose 168 mg/kg
[11] = IV 32 mg/kg/inj twice/day days 3,5,7,9,11, total dose 320 mg/kg

Compound: COc1ccc(C[C@H]2NC(=O)/C=C/C[C@@H]([C@H](C)[C@@H](OC(=O)CN)[C@@H](Cl)c3ccccc3)OC(=O)[C@H](CC(C)C)OC(=O)C(C)(C)CNC2=O)cc1Cl [Cryptophycin 55-GLY, Cryptophycin-55 glycinate]
- % T/C MASS [1, 6]: 0%
- ACTIVITY RATING [1, 6]: ++++ (>2.8)
- DRUG DEATHS [1, 6]: 0/5
- GROWTH DELAY [1, 6]: 15 days
- LOG KILL [1, 6]: 3.5
- MEDIAN TUMOR WEIGHT [1, 6]: 0 mg
- % T/C MASS [1, 7]: 0%
- ACTIVITY RATING [1, 7]: ++++ (>2.8)
- DRUG DEATHS [1, 7]: 0/5
- GROWTH DELAY [1, 7]: 17.5 days
- LOG KILL [1, 7]: 4.1
- MEDIAN TUMOR WEIGHT [1, 7]: 0 mg
- % T/C MASS [2, 8]: 24%
- ACTIVITY RATING [2, 8]: ++ (1.3-1.9)
- DRUG DEATHS [2, 8]: 0/5
- GROWTH DELAY [2, 8]: 5.25 days
- LOG KILL [2, 8]: 1.6
- MEDIAN TUMOR WEIGHT [2, 8]: 577 mg
- % T/C MASS [2, 9]: 0%
- ACTIVITY RATING [2, 9]: +++ (2.0-2.8)
- DRUG DEATHS [2, 9]: 0/5
- GROWTH DELAY [2, 9]: 7.6 days
- LOG KILL [2, 9]: 2.3
- MEDIAN TUMOR WEIGHT [2, 9]: 0 mg
- % T/C MASS [3, 8]: 9%
- ACTIVITY RATING [3, 8]: ++ (1.3-1.9)
- DRUG DEATHS [3, 8]: 0/5
- GROWTH DELAY [3, 8]: 13 days
- LOG KILL [3, 8]: 1.8
- MEDIAN TUMOR WEIGHT [3, 8]: 95 mg
- % T/C MASS [3, 9]: 0%
- ACTIVITY RATING [3, 9]: +++ (2.0-2.8)
- DRUG DEATHS [3, 9]: 0/5
- GROWTH DELAY [3, 9]: 16 days
- LOG KILL [3, 9]: 2.2
- MEDIAN TUMOR WEIGHT [3, 9]: 0 mg
- % T/C MASS [4, 8]: 24%
- ACTIVITY RATING [4, 8]: ++ (1.3-1.9)
- DRUG DEATHS [4, 8]: 0/5
- GROWTH DELAY [4, 8]: 6.2 days
- LOG KILL [4, 8]: 1.7
- MEDIAN TUMOR WEIGHT [4, 8]: 48 mg
- % T/C MASS [4, 10]: 0%
- ACTIVITY RATING [4, 10]: +++ (2.0-2.8)
- DRUG DEATHS [4, 10]: 0/5
- GROWTH DELAY [4, 10]: 7.8 days
- LOG KILL [4, 10]: 2.1
- MEDIAN TUMOR WEIGHT [4, 10]: 0 mg
- % T/C MASS [5, 6]: 15%
- ACTIVITY RATING [5, 6]: +++ (2.0-2.8)
- DRUG DEATHS [5, 6]: 0/5
- GROWTH DELAY [5, 6]: 21.5 days
- LOG KILL [5, 6]: 2.2
- MEDIAN TUMOR WEIGHT [5, 6]: 171 mg
- % T/C MASS [5, 11]: 0%
- ACTIVITY RATING [5, 11]: ++++ (>2.8)
- DRUG DEATHS [5, 11]: 0/5
- GROWTH DELAY [5, 11]: 56 days
- LOG KILL [5, 11]: 4.0
- MEDIAN TUMOR WEIGHT [5, 11]: 0 mg
- % T/C MASS [5, 7]: 5.5%
- ACTIVITY RATING [5, 7]: +++ (2.0-2.8)
- DRUG DEATHS [5, 7]: 0/5
- GROWTH DELAY [5, 7]: 21.5 days
- LOG KILL [5, 7]: 2.2
- MEDIAN TUMOR WEIGHT [5, 7]: 63 mg
- % T/C MASS (HUMAN COLON ADEN[…]-116; [6]): 5.5%
- ACTIVITY RATING (HUMAN COLON ADEN[…]-116; [6]): +++ (2.0-2.8)
- DRUG DEATHS (HUMAN COLON ADEN[…]-116; [6]): 0/5
- GROWTH DELAY (HUMAN COLON ADEN[…]-116; [6]): 22 days
- LOG KILL (HUMAN COLON ADEN[…]-116; [6]): 2.65
- MEDIAN TUMOR WEIGHT (HUMAN COLON ADEN[…]-116; [6]): 63 mg
- % T/C MASS (HUMAN COLON ADEN[…]-116; [11]): 0%
- ACTIVITY RATING (HUMAN COLON ADEN[…]-116; [11]): ++++ (>2.8)
- DRUG DEATHS (HUMAN COLON ADEN[…]-116; [11]): 0/4
- GROWTH DELAY (HUMAN COLON ADEN[…]-116; [11]): 35 days
- LOG KILL (HUMAN COLON ADEN[…]-116; [11]): 4.2
- MEDIAN TUMOR WEIGHT (HUMAN COLON ADEN[…]-116; [11]): 0 mg
- % T/C MASS (HUMAN COLON ADEN[…]-116; [7]): 0%
- ACTIVITY RATING (HUMAN COLON ADEN[…]-116; [7]): ++++ (>2.8)
- DRUG DEATHS (HUMAN COLON ADEN[…]-116; [7]): 0/5
- GROWTH DELAY (HUMAN COLON ADEN[…]-116; [7]): 25 days
- LOG KILL (HUMAN COLON ADEN[…]-116; [7]): 3.0
- MEDIAN TUMOR WEIGHT (HUMAN COLON ADEN[…]-116; [7]): 0 mg
